According to ChEMBL document CHEMBL3044771, “Synthesis, characterization, and in vitro anti-Mycobacterium tuberculosis activity of terpene Schiff bases” (2013):
In brackets after ≈: the same amount, converted by molar mass.

What was measured:
Assay type in all cases: functional
[1] = system: Mycobacteroides chelonae; assay: Antitubercular activity against Mycobacterium chelonae ATCC 35751 assessed as growth inhibition after 48 hr by NCCLS agar dilution method; details: ATCC 35751, 48 h
[2] = system: Mycobacterium xenopi; assay: Antitubercular activity against Mycobacterium xenopi ATCC 14470 assessed as growth inhibition after 48 hr by NCCLS agar dilution method; details: ATCC 14470, 48 h
[3] = system: Mycobacterium intracellulare; assay: Antitubercular activity against Mycobacterium intracellulare ATCC 35743 assessed as growth inhibition after 48 hr by NCCLS agar dilution method; details: ATCC 35743, 48 h
[4] = system: Mycolicibacterium smegmatis; assay: Antitubercular activity against Mycobacterium smegmatis ATCC 35797 assessed as growth inhibition after 48 hr by NCCLS agar dilution method; details: ATCC 35797, 48 h

Row | SMILES | MIC [1] [µg/mL] | MIC [2] [µg/mL] | MIC [3] [µg/mL] | MIC [4] [µg/mL]
1 | CC12CCC(C/C1=N/NC(=O)c1ccncc1)C2(C)C (stereo not drawn) | 50 (≈ 184 µM) | 50 (≈ 184 µM) | 50 (≈ 184 µM) | 50 (≈ 184 µM)
2 | C=C(C)C1CC=C(C)/C(=N/NC(=O)c2ccncc2)C1 (stereo not drawn) | 12 (≈ 44.6 µM) | 12 (≈ 44.6 µM) | 12 (≈ 44.6 µM) | 12 (≈ 44.6 µM)
3 | CCn1cc(C(=O)N/N=C\C=C(/C)CCC=C(C)C)c(=O)c2ccc(C)nc21 | > 100 | > 100 | > 100 | > 100
4 | CCn1cc(C(=O)N/N=C2\CC3CCC2(C)C3(C)C)c(=O)c2ccc(C)nc21 (stereo not drawn) | 50 (≈ 131 µM) | 50 (≈ 131 µM) | 50 (≈ 131 µM) | 50 (≈ 131 µM)
5 | C=C(C)C1CC=C(C)/C(=N\NC(=O)c2cn(CC)c3nc(C)ccc3c2=O)C1 (stereo not drawn) | > 100 | > 100 | > 100 | > 100
6 | CC(C)=CCC/C(C)=C\C=N/NC(=O)c1ccccc1Nc1cccc(C)c1C | > 100 | > 100 | > 100 | > 100
7 | Cc1cccc(Nc2ccccc2C(=O)N/N=C2\CC3CCC2(C)C3(C)C)c1C (stereo not drawn) | > 100 | > 100 | > 100 | > 100
8 | C=C(C)C1CC=C(C)/C(=N/NC(=O)c2ccccc2Nc2cccc(C)c2C)C1 (stereo not drawn) | > 100 | > 100 | > 100 | > 100
9 | CC12CCC(C/C1=N\NC(=O)c1ccccc1Nc1cccc(C(F)(F)F)c1)C2(C)C (stereo not drawn) | > 100 | > 100 | > 100 | > 100
10 | C=C(C)C1CC=C(C)/C(=N/NC(=O)c2ccccc2Nc2cccc(C(F)(F)F)c2)C1 (stereo not drawn) | > 100 | > 100 | > 100 | > 100
11 | CC(C)=CCC/C(C)=C/C=N/NC(=O)c1ccncc1 | > 100 | > 100 | > 100 | > 100
12 | NNC(=O)c1ccncc1 [ISONIAZID] | 12.5 (≈ 91.1 µM) | 12.5 (≈ 91.1 µM) | 12.5 (≈ 91.1 µM) | 12.5 (≈ 91.1 µM)
